Assay results taken from BindingDB's records for doi:10.3109/14756366.2012.715288 (Ankara University, 2013).

Experiments:
[1] = target: Proto-oncogene tyrosine-protein kinase Src (Homo sapiens, UniProt P12931); experiment: In Vitor Src Tyrosine Kinase Activity Assay; details: 22 °C
Description: (§1) Kinase activity (Src-family kinases, Hck, Lyn, Fyn, and c-Src) and the effect of the molecules were determined by ProFluor Src-Family Kinase Assay Kit (Promega). […] The compounds were dissolved in 10% DMSO and tested at 1, 10 and 100 μM concentrations. Briefly, the molecules were mixed with a reaction buffer that included a specific substrate for Src-family kinases (R110), a control substrate and the kinase. The reaction was initiated by the addition of ATP. After incubating the 96-well reaction plate at 22°C for 1 h, protease solution was added to each well and the plate was incubated for 1 h.

[2] = target: Tyrosine-protein kinase Lyn (Homo sapiens, UniProt P07948); experiment: In Vitor Src Tyrosine Kinase Activity Assay; details: 22 °C
Tyrosine-protein kinase Lyn, sequence (P07948 whole entry): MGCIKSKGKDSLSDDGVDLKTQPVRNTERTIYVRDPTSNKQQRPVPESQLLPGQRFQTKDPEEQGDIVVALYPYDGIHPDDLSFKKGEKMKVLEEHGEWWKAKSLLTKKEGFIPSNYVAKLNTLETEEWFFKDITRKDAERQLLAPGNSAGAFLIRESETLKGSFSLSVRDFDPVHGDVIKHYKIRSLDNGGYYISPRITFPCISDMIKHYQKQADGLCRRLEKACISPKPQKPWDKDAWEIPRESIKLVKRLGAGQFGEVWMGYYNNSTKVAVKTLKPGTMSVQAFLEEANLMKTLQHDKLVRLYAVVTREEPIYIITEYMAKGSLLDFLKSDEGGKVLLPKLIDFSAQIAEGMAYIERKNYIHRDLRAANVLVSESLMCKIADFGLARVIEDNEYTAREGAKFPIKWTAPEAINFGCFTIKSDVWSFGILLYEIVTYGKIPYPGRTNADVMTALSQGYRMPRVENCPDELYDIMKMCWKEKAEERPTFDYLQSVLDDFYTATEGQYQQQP
Description: as §1

Proto-oncogene tyrosine-protein kinase Src, sequence (P12931 2-536 limits assumed): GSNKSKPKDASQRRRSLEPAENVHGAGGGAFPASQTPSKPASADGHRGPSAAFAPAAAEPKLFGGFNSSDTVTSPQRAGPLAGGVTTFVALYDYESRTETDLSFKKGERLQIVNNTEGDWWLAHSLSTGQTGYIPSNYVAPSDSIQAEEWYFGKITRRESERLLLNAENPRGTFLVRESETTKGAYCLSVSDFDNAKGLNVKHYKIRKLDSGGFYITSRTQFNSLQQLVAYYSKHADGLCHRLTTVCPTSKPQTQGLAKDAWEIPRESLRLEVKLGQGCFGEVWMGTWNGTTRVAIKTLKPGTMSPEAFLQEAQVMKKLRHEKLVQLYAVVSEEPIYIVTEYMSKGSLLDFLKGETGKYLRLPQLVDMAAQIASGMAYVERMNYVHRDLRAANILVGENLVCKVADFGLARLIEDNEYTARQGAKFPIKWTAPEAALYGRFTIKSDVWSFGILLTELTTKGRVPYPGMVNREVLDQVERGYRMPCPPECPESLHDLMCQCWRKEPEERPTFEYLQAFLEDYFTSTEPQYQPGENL

Row | IC50 [1] [µM] | IC50 [2] [µM] | Compound
1 | 21 |  | COc1ccc(CCCC(=O)NCc2c[nH]c3nc(N)[nH]c(=O)c23)cc1OC [N-((2-Amino-4-oxo-4,7-dihydro-3H-pyrrolo[2,3-d]pyrimidin-5-yl)methyl)-4-(3,4-dimethoxyphenyl)butanamide (5)]
2 | 0.0004 |  | COc1cccc(-c2cn(-c3ccc(CCN4CCC(O)CC4)cc3)c3ncnc(N)c23)c1 [CGP77675]
3 | 16 |  | Cc1ccc(C(=O)NCc2c[nH]c3nc(N)[nH]c(=O)c23)s1 [N-[(2-Amino-4-oxo-4,7-dihydro-3H-pyrrolo[2,3-d]pyrimidin-5-yl)methyl]-5-methylthiophene-2-carboxamide (7)]
4 |  | 0.0003 | CN1CCN(C2CCC(n3cc(-c4ccc(Oc5ccccc5)cc4)c4c(N)ncnc43)CC2)CC1 (centres undefined) [A-419259]
